# Assay results: PMC5075098, “Preclinical Evaluation of the Stability, Safety, and Efficacy of CD101, a Novel Echinocandin” (Antimicrobial Agents and Chemotherapy, 2016)
# Read-outs that look alike come from different tables or passages of the source. Starred links: 1 amine or outer side, 2 acyl side, 3 side chain; linkers in the order of their positions; H or OH if unused. Positions of bridges follow the written chain, without caps; N, C: chain ends. Non-standard residues stand in square brackets, D forms with d. Residues, ends and D or L forms follow the SMILES beside them. *: point of attachment. Orn(4R-OH,5R-OCH2CH2NMe3+) = C[N+](C)(C)CCO[C@@H](N[*:3])[C@H](O)C[C@H](N[*:1])C(=O)[*:2]; pTerphenylCO(4''-OnC5H11) = CCCCCOc1ccc(-c2ccc(-c3ccc(C(=O)*)cc3)cc2)cc1; hTyr(3S-OH,4S-OH) = N[C@H](C(=O)O)[C@H](O)[C@@H](O)c1ccc(O)cc1; Pro(3S-OH,4S-Me) = C[C@H]1CN[C@H](C(=O)O)[C@H]1O; Hyp = O=C(O)[C@@H]1C[C@@H](O)CN1
# Assays:
# [1] = Plasma protein binding, rapid equilibrium dialysis; type: in vitro ADME, CD-1 mouse; conditions: mouse, pH 7.4, read-out: protein bound (converted)
# Experimental: (§1) Rapid equilibrium dialysis (RED) ([16]) was used to determine cross-species protein binding of CD101 in CD-1 mouse, Sprague-Dawley rat, cynomolgus monkey, chimpanzee, and human plasma. […] Dialysis buffer (350 μl of phosphate-buffered saline [PBS], pH 7.4, with 100 mM sodium phosphate) was loaded into the buffer (left) channel of the RED device. The device was agitated gently at 37°C for 4 h. Samples were placed into a new 96-well plate for matrix matching (25 μl of plasma added to the dialysis buffer aliquots or 25 μl of dialysis buffer to the plasma aliquots). […] Following centrifugation, 200 μl of the supernatant was transferred to a clean 96-well plate and evaporated to dryness at 37°C under nitrogen. Samples were reconstituted in 100 μl of 1:1 acetonitrile-water prior to analysis by LC-MS/MS. The percentage bound was calculated as the difference between 100% and the percentage free (the ratio of the concentration in supernatant to the concentration in plasma).
# [2] = Plasma protein binding, rapid equilibrium dialysis; type: in vitro ADME, cynomolgus monkey; conditions: monkey, pH 7.4, read-out: protein bound (converted)
# Experimental: as §1
# [3] = 2-week repeat-dose toxicity and hepatotoxicity screening; type: in vivo, Sprague-Dawley rats
# Experimental: Dosing solutions were prepared in a vehicle comprising 5% mannitol containing 2.5% polysorbate 80 (Tween 80) in 0.3% acetic acid.
# Animals were randomly assigned to dose groups and stratified by weight to achieve similar group mean body weights (males, 255 to 318 g; females, 192 to 215 g). Blood, urine, and liver samples (excised and preserved in 10% neutral buffered formalin) were obtained on day 15. Plasma liver enzyme levels were assessed. Liver tissues were processed to paraffin blocks and prepared for slides. Slides were stained with hematoxylin and eosin. Hematology data were collected using the Advia 120 hematology analyzer. Coagulation data were collected using the Diagnostica STA compact coagulation analyzer. Clinical chemistry data were collected using the AU400 chemistry analyzer. Qualitative and quantitative urinalysis was recorded using iRICELL 1500 UA analyzer. Clinical effects were assessed for determination of the maximum tolerated dose (MTD).
# Statistical evaluations were performed on in-life and clinical pathology numerical data to determine statistical significance following a decision tree. First, the homogeneity of the data was determined by Bartlett's test. If the data were homogeneous, a one-way analysis of variance was performed to assess statistical significance. If statistically significant differences between the means were found, Dunnett's test was used to determine the degree of significance from the control means (P < 0.05, P < 0.01, and P < 0.001). If the data were nonhomogeneous, the Kruskal-Wallis nonparametric analysis was performed to assess statistical significance. If statistically significant differences between the means were found (P < 0.05, P < 0.01, and P < 0.001), the Mann-Whitney U test was used to determine the degree of significance from the control means (P < 0.05, P < 0.01, and P < 0.001).
# [4] = Metabolic stability in liver microsomes; conditions: for t1/2, NADPH free / half-life in liver microsomes: 1 μM; for t1/2, NADPH free: up to 2 h at 37°C, LC-MS/MS, first-order decay fit; for half-life in liver microsomes: NADPH state not specified, 37°C; for half-life: liver microsomes
# Experimental: Metabolic stability was determined as described in reference. […] Following incubation, samples were quenched with ice-cold methanol or acetonitrile (ACN), containing an appropriate internal standard and centrifuged to remove precipitated protein, and the supernatants were analyzed to quantitate the remaining parent. […] Data were converted to the percentage remaining by dividing by the time zero concentration value. Data were fit to a first-order decay model to determine half-life. Intrinsic clearance was calculated from the half-life and the protein concentrations.
# [5] = Inhibition of recombinant CYP450 enzymes; type: in vitro ADME; conditions: recombinant CYP450 enzymes 1A2, 2B6, 2C8, 2C9, 2C19, 2D6, 3A4
# [6] = CYP450 inhibition in human liver microsomes; conditions: pH 7.4, IC50, human liver microsomes, 0.03 to 30 μM, 5 min at 37°C, pH 7.4, LC-MS/MS, duplicate
# Experimental: The final DMSO content in the reaction mixture was equal in all solutions used within an assay and was less than 0.2%. […] After incubation for 5 min at 37°C, the reactions were terminated by addition of methanol-containing internal standard (propranolol) for analytical quantification. The quenched samples were incubated at 4°C for 10 min and centrifuged at 4°C for 10 min.
# [7] = after 44 h; cited from earlier work
# Source text: CD101, a novel echinocandin being developed as a high-exposure, once-weekly intravenous (i.v.) formulation for the treatment and prevention of systemic fungal infections, was designed to be chemically and metabolically stable to avoid hepatotoxicity while retaining the antifungal activity of an echinocandin.
# [8] = rat
# [9] = Plasma protein binding, ultracentrifugation; type: in vitro ADME; conditions: human, ∼500,000 × g 2.5 h at 37°C, LC-MS/MS, SEM, read-out: % of protein bound (SEM) (converted)
# Experimental: Ultracentrifugation ([15]) was used to compare human plasma protein binding of CD101 and anidulafungin. […] Following ultracentrifugation, the supernatant was transferred to a microtiter plate containing 50 μl plasma for matrix-matching purposes and quenched with 400 μl of cold acetonitrile (ACN) with 0.1% formic acid containing diclofenac as an internal standard. Quenched samples were centrifuged for 5 min at 10°C (e.g., 3,100 rpm [2,000 × g]) to sediment the precipitated proteins, and 50 μl supernatant was transferred to a microtiter plate containing 100 μl of water prior to analysis by LC-MS/MS. The percentage bound was the difference between 100% and the percentage free (the ratio of the concentration in supernatant to the total concentration).
# [10] = tested on: A. fumigatus (ATCC 13073); assay: MEC/MIC, CLSI broth microdilution; conditions: 24 h at 35°C, rounded/compact hyphal morphology
# Experimental: Enumeration of MIC and MEC assay inoculum viable counts was performed by plating aliquots of the starting assay inoculum on Sabouraud dextrose agar.
# [11] = CD101 2, 6, 20 mg/kg/day i.v. 14 days, rats
smiles,measurement,setting,value
"CCCCCOc1ccc(-c2ccc(-c3ccc(C(=O)N[C@H]4C[C@@H](O)[C@@H](OCC[N+](C)(C)C)NC(=O)[C@@H]5[C@@H](O)[C@@H](C)CN5C(=O)[C@H]([C@@H](C)O)NC(=O)[C@H]([C@H](O)[C@@H](O)c5ccc(O)cc5)NC(=O)[C@@H]5C[C@@H](O)CN5C(=O)[C@H]([C@@H](C)O)NC4=O)cc3)cc2)cc1 [CD101] ({pTerphenylCO(4''-OnC5H11)}-[Orn(4R-OH,5R-OCH2CH2NMe3+)]T[Hyp][hTyr(3S-OH,4S-OH)]T[Pro(3S-OH,4S-Me)]; lactam 1-C)",fraction unbound,[1],0.009
same,fraction unbound,[2],0.011
same,repeat-dose systemic or target organ toxicity,"[3]; 14-day i.v. infusion, rats, CD101 20 mg/kg/day, anidulafungin 40 mg/kg/day (comparable exposure)",did not appear to elicit any evidence of repeat-dose systemic or target organ toxicity
same,early deaths,[3]; [11],no early deaths
same,"effects on body weight, hematology, coagulation, or urinalysis",[3]; [11],"did not exhibit effects on body weight, hematology, coagulation, or urinalysis"
same,increases in neutrophils,"[3]; CD101 2, 6, 20 mg/kg/day i.v. 14 days, rats, P ≤ 0.01, within normal limits, considered incidental",up to 31%
same,"increases in reticulocytes, hemoglobin, hematocrit, activated partial thromboplastin time, BUN, sodium, total bilirubin, total protein, chloride, and globulin","[3]; CD101 2, 6, 20 mg/kg/day i.v. 14 days, rats, P ≤ 0.05, within normal limits, considered incidental",less than 20%
same,microscopic changes in the liver,"[3]; day 15, H&E, CD101 2, 6, or 20 mg/kg/day, anidulafungin 40 mg/kg/day (some of the females)",no microscopic changes
same,"t1/2, NADPH free",[4]; human liver microsomes without NADPH,>4 h
same,half-life in liver microsomes,[4]; human microsomes,≥ 4 h
same,half-life,[4]; human,> 4 h
same,"t1/2, NADPH free",[4]; monkey liver microsomes without NADPH,>4 h
same,half-life in liver microsomes,[4]; monkey microsomes,≥ 4 h
same,half-life,[4]; monkey,> 4 h
same,microsomal CLint,"[4]; monkey, microsomes",2.1 µL/min/mg
same,IC50,[5],> 10 µM
same,IC50,[6]; midazolam substrate (2.5 μM),29 µM
same,IC50,[6]; testosterone substrate (50 μM),> 30 µM
same,% remaining in human plasma,[7],93%
same,half-life,[8]; liver microsomes,> 4 h
same,half-life,[8]; microsomes,3.99 h
same,microsomal CLint,[8]; microsomes,9.6 µL/min/mg
same,fraction unbound,[9]; 1 μg/ml,0.02
same,fraction unbound,[9]; 5 μg/ml,0.017
same,MEC,[10],0.004 µg/mL
